The values that follow come from patent US11828759B2, “Method of diagnosis” (Peter MacCallum Cancer Institute, priority 2016, dated 2023).

“Also recorded” adds a separate entry of the source.

For one test, the system named is MDA-MB-231 cells. As to the kind of experiment: 3D culture / co-culture invasion model on reconstituted basement membrane. It is filed as cell-based, human. The settings on record: for invasive protrusions / invasive outgrowths of co-cultures: MDA-MB-231 co-cultured 1:1 with N1ME stefin A low myoepithelial cells, 50 μM inhibitor in media, refreshed every 48 hours, vs DMSO control, n=3. Here is the method:
All 3D cultures were performed using CULTREX® (Trevigen, Gaithersburg, MD, 3433-005-01) similar to previously described (Mullins et al.). Briefly, 8 well chambers (THERMOFISHER, NUN155409) were coated with 100% CULTREX and allowed to solidify at 37° C. Cells (pre-mixed at 1:1 ratio) were seeded on top of the solidified CULTREX and allowed to adhere for 60-90 minutes before 2% CULTREX in MEGM media (LONZA) was overlaid. Media was changed every 4 days unless otherwise stated. On day 7, Z-stacks were captured on a ZEISS LSM 780 inverted confocal microscope, and 3D-reconstructions were created using IMARIS.
Bright-field images at 40× magnification were taken on the Olympus BX41 using a DP25 camera and DP2-BSW software (Olympus, TYO, Japan) to observe overall multicellular morphology. Nuclei were labelled with cell permeable Hoechst (Thermo Scientific, MA, USA, 33342) and rinsed with PBS. Confocal microscopy was performed on a Zeiss LSM 780 inverted confocal microscope (Zeiss, Thornwood, NY, USA) with a 10×/0.45 air-objective, with 37° C., 5% CO2 incubation. Z-stacks were captured using ZEN software (Zeiss) and 3D-reconstructions were created using IMARIS (Bitplane, Switzerland) including volume rendering.
Images of 3D cultures were processed and analyzed using the Fiji distribution of IMAGEJ (Schindelin et al. 2012) as follows. Extraction and mask generation of the individual cultures was carried out by applying an edge filter followed by an unsharp mask (radius=6, mask=0.8). The resulting image was blurred using a Gaussian filter (sigma=4) to make subsequent thresholding more accurate. A threshold was applied, manually adjusted if required and used to create a binary mask. The resulting mask was filtered by size to remove small, erroneous, debris. Each individual 3D cultures mask was then measured for its perimeter and convex hull lengths. […]
All statistics were calculated and graphed using PRISM version 7. […] Variation in mean convex hull to perimeter ratio was determined using one-way ANOVA followed by Tukey's post hoc analysis.

A further test has as its system DSG3. As to the kind of experiment: Western blot of DSG3 in N1ME cells and conditioned media after CA-074 treatment. It is filed as cell-based, human. The settings on record: CA-074 for 72 hours vs DMSO. On the procedure:
(§1) Cells were lysed by freezing in citrate buffer (50 mM citrate, pH 5.5, 0.5% CHAPS, 0.1% TRITON™ X-100, 4 mM DTT). For cathepsin B activity gels, activity-based probes [GB123 (1 μM) (29) or BMV109 (0.1 μM) (Verdoes et al. 2013)] were added to lysates from a 100×stock, and proteins were incubated for 30 minutes at 37° C. The addition of 4×sample buffer (40% glycerol, 200 mM Tris-HCl pH 6.8, 0.04% bromophenol blue, 5% beta-mercaptoethanol) stopped the reaction with boiling for 10 minutes. Proteins (30-50 μg) were separated by SDS-PAGE (on either 15% acrylamide or gradient 4-20% gels, precast from BIO-RAD, CA, USA) and visualized using a TYPHOON flatbed laser scanner (GE Healthcare, UK) for Cy5 fluorescence. For immunoblotting, proteins were transferred to nitrocellulose membranes and subjected to standard Western blotting protocols. Membranes were incubated with 1 μg/ml primary antibodies against stefin A, cathepsin B (R&D Systems, Minneapolis, USA, AF965), DSG3 (Life Technologies, 326300), E-cadherin (Novus, NB-110-56937), or 1:10,000 dilutions of β-actin (Sigma-Aldrich, MO, USA, A22280) or GAPDH (Cell Signaling Technology, MA, USA, 8884). Signal was detected using ECL (GE Healthcare), G:Box GelDoc (Syngene, CBG, UK) and GeneSys (Syngene) software with automatic exposure.
(§2) To collect secreted proteins, cells were incubated in serum free media for 24 hours. […]
(In general: In western blotting, separated proteins are transferred to a membrane and probed.)

The test system of test [1] is MMTV-PyMT mice (spontaneous mammary gland tumors). As to the kind of experiment: MMTV-PyMT mouse model of DCIS-to-invasive transition. The class given is in vivo. The settings on record: 50 mg/kg intraperitoneal daily, day 30-49. On the procedure:
Mouse investigations were performed after approval by the La Trobe University Animal Ethics Committee. Bl/6 MMTV-PyMT positive female mice were injected (intraperitoneal, 200 μl/20 g mouse) daily with 50 mg/kg CA-074 or vehicle (5% DMSO/saline) from day 30-49. On day 50, mice were culled and second, third and fourth mammary glands were resected and sent for histology. Mouse tissues were fixed in 10% buffered formalin for 6 hours and paraffin-embedded. Sections at three different depths throughout the mammary gland were taken and were stained with hematoxylin and eosin according to standard protocols. Alternatively, sections were stained with 1 μg/ml anti-α-smooth muscle actin (ABCAM, ab66133) or with isotype control antibodies, as above. Sections were scored by a pathologist blinded to treatment groups (Sandra O'Toole) for the presence of invasive regions of cancer growth within the mammary gland. Experiment included 8 mice per group.

The subject of a further test is E-cadherin. As to the kind of experiment: Western blot of E-cadherin in N1ME cells and supernatant after CA-074 treatment. It is filed as cell-based, human. The settings on record: N1ME stefin A wild type or stefin A low cells; CA-074 for 72 hours. On the procedure:
as §1, §2

The target of a further test is T1, cathepsin L (Homo sapiens, UniProt P07711).
T1 construct: SDS-PAGE gel electrophoresis of N1ME cell lysate incubated with increasing concentrations of recombinant stefin A; endogenous in cells; host or cells: N1ME (hTERT-immortalized human myoepithelial cells), lysed in citrate buffer pH 5.5
T1 sequence (P07711 114-333): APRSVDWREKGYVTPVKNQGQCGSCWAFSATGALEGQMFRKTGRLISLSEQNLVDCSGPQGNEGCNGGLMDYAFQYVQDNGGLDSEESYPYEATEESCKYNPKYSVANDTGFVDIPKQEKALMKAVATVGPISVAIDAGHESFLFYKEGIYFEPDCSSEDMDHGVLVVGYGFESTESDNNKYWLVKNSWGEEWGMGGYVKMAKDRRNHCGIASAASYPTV
As to the kind of experiment: Stefin A in vitro inhibition of cathepsin L in N1ME cell lysate (BMV109 activity based probe). It is filed as biochemical. The note with it: increasing concentrations of recombinant stefin A, 15 min at 37 C.

A further test has as its target T2, cathepsin B (Homo sapiens, UniProt P07858).
T2 construct: SDS-PAGE gel electrophoresis of N1ME cell lysate incubated with increasing concentrations of recombinant stefin A; endogenous in cells; host or cells: N1ME (hTERT-immortalized human myoepithelial cells), lysed in citrate buffer pH 5.5
As to the kind of experiment: Stefin A in vitro inhibition of cathepsin B in N1ME cell lysate (BMV109 activity based probe). The settings on record: increasing concentrations of recombinant stefin A, 15 min at 37 C. It is filed as biochemical. On the procedure:
as §1, with “exposure. […]” for “exposure.”

Regarding `CCCNC(=O)[C@H]1O[C@@H]1C(=O)N[C@H](C(=O)N1CCC[C@H]1C(=O)O)[C@@H](C)CC` [CA-074], the “invasive protrusions / invasive outgrowths of co-cultures” value in the test with MDA-MB-231 cells is given as “rescued the phenotype caused by stefin A loss”. The “DSG3 protein in whole cell lysates” value with DSG3 (N1ME stefin A low cells) is “rescued in whole cell lysates; also recorded: an increase in protein was noted for DSG3”. Further, the “cleaved extracellular domain of DSG3 (ecto-DSG3) in conditioned media” value in the test with DSG3 (N1ME wild type and stefin A low cells) is “decreased the cleaved extracellular domain of DSG3”. For the same molecule, the “mice progressed to IDC at experimental endpoint” value in test [1] (glands scored at day 50, 8 mice per group, control 6/8) is listed as 2/8. In addition, the “number of invasive regions throughout the mammary gland” value in test [1] (vs DMSO control) is recorded as “decreased the number of invasive regions”. For the same molecule, the “E-cadherin expression in whole cell lysates or ecto-protein” value in the test on E-cadherin is listed as “did not affect E-cadherin expression”.
Turning to JPM-OEt, the “invasive protrusions / invasive outgrowths of co-cultures” value with MDA-MB-231 cells was “reverted the invasive protrusions in the co-cultures, however not to the same extent as CA-074, and was not statistically significant”.

B1: recombinant stefin A: recombinant stefin A (R&D Systems, 1407-PI-050), an 11 kDa cysteine protease inhibitor (protein, UniProt P01040 1-98, looked up)
Cystatin-A: MIPGGLSEAKPATPEIQEIVDKVKPQLEEKTNETYGKLEAVQYKTQVVAGTNYYIKVRAGDNKYMHLKVFKSLPGQNEDLVLTGYQVDKNKDDELTGF
Turning to B1, the “invasion of MDA-MB-231 cells cultured alone” value in the test with MDA-MB-231 cells (MDA-MB-231 alone, without myoepithelial cells) is “did not inhibit invasion”. For the same molecule, the “cathepsin L activity” value with cathepsin L is reported as “can be inhibited”. In the test with cathepsin B, the “cathepsin B activity” value is reported as “can be inhibited”.
